# EP0934252B1, “AMIDE DERIVATIVES AND THEIR USE AS PESTICIDES” (BAYER AG, priority 1996, dated 1998)
# Columns and labels:
# [1] = tested on: Phytophthora infestans; format: in vivo; details: Tomate, protektiv; for Wirkungsgrad in %: Aufwandmenge an Wirkstoff 50 g/ha, evaluated 3 days after inoculation, 0 % = as control, 100 % = no infestation; for Wirkungsgrad: Wirkstoffaufwandmenge 50 g/ha, summary sentence in the text for both compounds
# [2] = logP (physical data of the preparation examples); format: physicochemical
SMILES,Wirkungsgrad in % [1],Wirkungsgrad [1],logP [2]
"COc1ccc(CCNC(=O)C(=O)c2ccc3c(c2)CCCC3)cc1OC [Beispiel 1, N-[2-(3,4-Dimethoxyphenyl)-ethyl]-2-oxo-2-(5,6,7,8-tetrahydronaphthalin-2-yl)-acetamid]",95%,90 -95%,3.24
"COc1ccc(CCNC(=O)C(O)c2ccc3c(c2)CCCC3)cc1OC (stereo not shown) [Beispiel 2, N-[2-(3,4-Dimethoxyphenyl)-ethyl]-2-hydroxy-2-(5,6,7,8-tetrahydronaphthalin-2-yl)-acetamid]",–,–,2.43
COc1ccc(CCNC(=O)C(=O)c2ccc3c(c2)CCC3)cc1OC [Beispiel 3],90%,90 -95%,2.92
COc1ccc(CCNC(=O)C(=O)c2ccc3c(c2)CCCCC3)cc1OC [Beispiel 4],–,–,3.57
COc1ccc(CCNC(=O)C(O)c2ccc3c(c2)CCC3)cc1OC (stereo not shown) [Beispiel 5],–,–,2.19
COc1ccc(CCNC(=O)C(O)c2ccc3c(c2)CCCCC3)cc1OC (stereo not shown) [Beispiel 6],–,–,2.7
